According to patent US20210284621A1 (priority 2018, published 2021):
Like-named read-outs stand apart in the source and are kept apart here.

How the values were obtained:
CB2 receptor [1] = biological target: T1, CB2 receptor (Homo sapiens, UniProt P34972); test: cAMP Assay #2: Hit Hunter cAMP assay, Gi-coupled agonist activity, CB2; assay type: cell-based; set-up: host or cells: cAMP Hunter cell lines; conditions: for CB2 fold selectivity: CB1 EC50 / CB2 EC50
[2] = tested on: 12 systems of human primary cells; test: BioMAP Diversity PLUS phenotypic screen; assay type: cell-based; conditions: 3.3 μM; for Immune modulation, cell surface and tissue remodeling biomarkers: changes at least 1.5-fold from vehicle control
Method: Compounds of the invention were assayed for their effects on 148 biomarkers of inflammation, immune modulation and tissue remodeling in the BioMAP® Diversity PLUS® (DiscoverX) platform designed to model aspects of human diseases in vitro (Kunkel 2004, Berg 2006, Melton 2013).
The example compounds (3.3 μM) in Table 8 induced increases or decreases in the levels of the indicated 20 biomarkers, which are at least 1.5-fold change from vehicle control and are outside the significance prediction envelop. All compounds presented in Table 8 were not cytotoxic at the concentration tested.

CB1 receptor [3] = biological target: T2, CB1 receptor (Homo sapiens, UniProt P21554); test: cAMP Assay #2: Hit Hunter cAMP assay, Gi-coupled agonist activity, CB1; assay type: cell-based; set-up: host or cells: PathHunter cell lines
CB2 receptor [4] = biological target: T1, CB2 receptor; test: cell-based; set-up: host or cells: cAMP Hunter cell lines
Method in brief: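 PathHunter β-Arrestin enzyme fragment complementation cells, EA-tagged β-Arrestin and PK-tagged receptor, exposed to compound for 90 to 180 minutes at 37° C. or room temperature, 1% vehicle. Chemiluminescence read 1 h after detection reagent; agonist % activity relative to vehicle and MAX control ligand.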

CB1 receptor [5] = biological target: T2, CB1 receptor; test: CB1 competitive radioligand binding assay ([3H] SR141716A); set-up: expressed in transfected cells; host or cells: Chem-1 cells; conditions: for inhibition at 0.5 µM: 0.5 μM compound, 2.0 nM [3H] SR141716A, 90 min 37° C.
Method in brief: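 Chem-1 cells expressing human recombinant CB1 incubated 90 min at 37° C with 2.0 nM [3H]SR141716A and compound at 0.5 μM (1% DMSO) in HEPES pH 7.4 buffer with MgCl2, CaCl2, 0.2% BSA. Read-out is % inhibition of radioligand binding.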

CB1 receptor [6] = biological target: T2, CB1 receptor; test: cell-based; set-up: host or cells: PathHunter cell lines
CB2 receptor [7] = biological target: T1, CB2 receptor; test: CB2 competitive radioligand binding assay ([3H] WIN-55,212-2); set-up: expressed in transfected cells; host or cells: CHO-K1 cells; conditions: for inhibition at 0.05 µM: 0.05 μM compound, 2.4 nM [3H] WIN-55,212-2, 90 min 37° C.
Method in brief: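 CHO-K1 cells expressing human recombinant CB2 were incubated with compound (0.05 μM, 1% DMSO) and 2.4 nM [3H]WIN-55,212-2 in 20 mM HEPES pH 7.0, 0.5% BSA for 90 min at 37 °C. Percent inhibition of radioligand binding was reported.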

CB2 receptor [8] = biological target: T1, CB2 receptor; test: cAMP Assay #1: CB2 adenylylcyclase assay in CHO cells; assay type: cell-based; set-up: expressed in transfected cells; host or cells: CHO cells
Method: (§1) Compounds of the invention were assayed in an adenylylcyclase assay to determine agonist activity on the CB1 and CB2 receptors, the results of which are provided in Table 4. Exemplary methods for the adenylylcyclase assay can be found in the literature, for example, in Rhee, M-H., et al. Cannabinol Derivatives: Binding to Cannabinoid Receptors and Inhibition of Adenylylcyclase. J Med Chem. 40: 3228-3233 (1997).
CB2 Activity as determined by Adenylylcyclase Assay: CB2 receptor agonist activity was measured by measuring cAMP production. A compound of the invention was incubated with CHO cells expressing human recombinant CB2 for 10 minutes at 37° C.
(§2) Determination of EC50 values: The EC50 values (concentration producing a half-maximal response) were determined by non-linear regression analysis of the concentration-response curves generated with mean replicate values using Hill equation curve fitting: Y=D+[(A−D)/(1+(C/C50)^nH)], where Y=response, A=left asymptote of the curve, D=right asymptote of the curve, C=compound concentration, and C50=EC50, and nH=slope factor. This analysis was performed using software developed at Cerep (Hill software) and validated by comparison with data generated by the commercial software SigmaPlot® 4.0 for Windows® (© 1997 by SPSS Inc.).

CB1 receptor [9] = biological target: T2, CB1 receptor; test: cAMP Assay #1: CB1 adenylylcyclase assay in CHO cells; assay type: cell-based; set-up: expressed in transfected cells; host or cells: CHO cells
Method: as §1
CB1 Activity as determined by Adenylylcyclase Assay: CB1 receptor agonist activity was measured by measuring cAMP production. A compound of the invention was incubated with CHO cells expressing human recombinant CB1 for 20 minutes at 37° C.
as §2

[10] = Hit Hunter cAMP, 25 μM forskolin, control ligand CP55,940, read-out: CB2, EC50
[11] = CHO cells, 10 min 37° C., relative to 100 nM WIN 55212-2, read-out: CB2 Activity EC50 (cAMP)
[12] = Hit Hunter cAMP, 20 μM forskolin, control ligand CP55,940, read-out: CB1, EC50
[13] = PathHunter agonist mode, read-out: CB2 Activity (β-Arrestin)
[14] = Table 2, read-out: CB1 Binding Ki
[15] = PathHunter agonist mode, read-out: CB1 Activity (β-Arrestin)
[16] = CHO cells, 20 min 37° C., relative to 10 nM CP 55940, read-out: CB1 Activity EC50 (cAMP)
[17] = Table 2, read-out: CB2 Binding Ki

T2 sequence (P21554 whole entry): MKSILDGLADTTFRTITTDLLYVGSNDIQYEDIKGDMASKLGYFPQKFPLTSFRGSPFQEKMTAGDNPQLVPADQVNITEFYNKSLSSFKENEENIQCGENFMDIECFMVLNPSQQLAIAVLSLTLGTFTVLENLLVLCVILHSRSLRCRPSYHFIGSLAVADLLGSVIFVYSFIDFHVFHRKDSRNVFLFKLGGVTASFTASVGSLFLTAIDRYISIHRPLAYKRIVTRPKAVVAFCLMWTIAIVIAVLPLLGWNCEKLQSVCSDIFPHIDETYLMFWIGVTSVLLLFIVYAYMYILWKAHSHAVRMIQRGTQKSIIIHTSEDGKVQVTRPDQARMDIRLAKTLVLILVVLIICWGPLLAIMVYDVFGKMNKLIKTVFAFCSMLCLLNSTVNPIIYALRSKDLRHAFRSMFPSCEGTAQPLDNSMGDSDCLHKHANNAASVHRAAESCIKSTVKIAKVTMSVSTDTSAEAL
T1 sequence (P34972 whole entry): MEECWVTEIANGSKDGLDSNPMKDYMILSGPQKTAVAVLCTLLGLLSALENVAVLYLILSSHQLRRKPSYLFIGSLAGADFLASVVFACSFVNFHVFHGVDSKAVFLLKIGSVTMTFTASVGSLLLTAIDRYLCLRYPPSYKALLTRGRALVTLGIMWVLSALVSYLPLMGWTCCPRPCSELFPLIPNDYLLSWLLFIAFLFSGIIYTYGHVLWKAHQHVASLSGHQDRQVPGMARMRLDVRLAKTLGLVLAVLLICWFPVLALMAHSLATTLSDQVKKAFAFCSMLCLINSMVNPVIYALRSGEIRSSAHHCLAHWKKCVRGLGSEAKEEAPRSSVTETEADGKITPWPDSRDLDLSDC

Compound | EC50 (CB2 receptor [1]) [µM] | CB2 fold selectivity (CB2 receptor [1]; Hit Hunter cAMP) | Immune modulation, cell surface and tissue remodeling biomarkers [2] | EC50 (CB1 receptor [3]) [µM] | Ki (CB1 receptor [5]) [µM] | EC50 (CB1 receptor [6]) [µM] | Ki (CB2 receptor [7]) [µM] | Fold Selectivity (CB1/CB2) (CB2 receptor [7]; Table 3, ratio of Ki CB1/CB2) | EC50 (CB2 receptor [1]; [10]) [µM] | EC50 (CB2 receptor [8]; [11]) [µM] | EC50 (CB1 receptor [3]; [12]) [µM] | EC50 (CB2 receptor [4]; [13]) [µM] | inhibition at 0.5 µM (CB1 receptor [5]) [%] | Ki (CB1 receptor [5]; [14]) [µM] | EC50 (CB1 receptor [6]; [15]) [µM] | EC50 (CB1 receptor [9]; [16]) [µM] | inhibition at 0.05 µM (CB2 receptor [7]) [%] | Fold Selectivity (CB1/CB2) (CB2 receptor [7]; Table 2, ratio of Ki CB1/CB2) | Ki (CB2 receptor [7]; [17]) [µM] | other results
CCCCCCC(C)(C)c1cc(O)c2c(c1)OC(C)(C)[C@@H]1CC=C(C(=O)NC3CCCC3)C[C@@H]21 [Compound 92, (6aR,10aR)-N-cyclopentyl-1-hydroxy-6,6-dimethyl-3-(2-methyloctan-2-yl)-6a,7,10,10a-tetrahydro-6H-benzo[c]chromene-9-carboxamide] | 0.0016 | 17.7 | Reduced P-selectin | 0.0288 | 0.0457 | 0.0173 | 0.0038 | 12.0 |  |  |  |  |  |  |  |  |  |  |  | EC50 (CB2 receptor [4]): 0.0014 µM
CCCCCCC(C)(C)c1cc(O)c2c(c1)OC(C)(C)[C@@H]1CC=C(C(=O)N[C@H](C)CCO)C[C@@H]21 [Compound 14, (6aR,10aR)-1-Hydroxy-N—((R)-4-hydroxybutan-2-yl)-6,6-dimethyl-3-(2-methyloctan-2-yl)-6a,7,10,10a-tetrahydro-6H-benzo[c]chromene-9-carboxamide] |  | 115.2 |  |  |  |  |  |  | 0.0041 | 0.0097 | 0.47 | 0.008 | 25 | 1.23 | > 3 | 0.01 | 47 | 22 | 0.056 | 
CCCCCCC(C)(C)c1cc(O)c2c(c1)OC(C)(C)[C@@H]1CC=C(C(=O)NC3CC3)C[C@@H]21 [Compound 6, (6aR,10aR)—N-Cyclopropyl-1-hydroxy-6,6-dimethyl-3-(2-methyloctan-2-yl)-6a,7,10,10a-tetrahydro-6H-benzo[c]chromene-9-carboxamide] | 0.0008 | 6.0 |  | 0.0047 | 0.045 |  | 0.0039 |  |  |  |  | 0.21 | 64 |  | 0.16 |  | 98 | 12 |  | EC50 (CB2 receptor [8]): < 0.003 µM; EC50 (CB1 receptor [9]): < 0.003 µM
CCCCCCC(C)(C)c1cc(O)c2c(c1)OC(C)(C)[C@@H]1CC=C(C(=O)NCC(O)CO)C[C@@H]21 (stereo partly drawn) [Compound 24, (6aR,10aR)-N-(2,3-Dihydroxypropyl)-1-hydroxy-6,6-dimethyl-3-(2-methyloctan-2-yl)-6a,7,10,10a-tetrahydro-6H-benzo[c]chromene-9-carboxamide] |  | 63.5 |  |  |  |  |  |  | 0.0035 | 0.0024 | 0.223 | 0.002 | 44 | 1.93 | > 3 | 0.013 | 60 | 35 | 0.055 | 
CCCCCCC(C)(C)c1cc(O)c2c(c1)OC(C)(C)[C@@H]1CC=C(C(=O)NC3CCC3)C[C@@H]21 [Compound 44, (6aR,10aR)-N-cyclobutyl-1-hydroxy-6,6-dimethyl-3-(2-methyloctan-2-yl)-6a,7,10,10a-tetrahydro-6H-benzo[c]chromene-9-carboxamide] |  |  | Reduced MCP-1, P-selectin, and IL-1α |  | 0.0335 |  | 0.0024 | 14.0 |  |  |  | 0.0016 |  |  | 0.0111 |  |  |  |  | 
CCCCCCC(C)(C)c1cc(O)c2c(c1)OC(C)(C)[C@@H]1CC=C(C(=O)NC(C)(C)C(F)(F)F)C[C@@H]21 [Compound 100, (6aR,10aR)-1-hydroxy-6,6-dimethyl-3-(2-methyloctan-2-yl)-N-(1,1,1-trifluoro-2-methylpropan-2-yl)-6a,7,10,10a-tetrahydro-6H-benzo[c]chromene-9-carboxamide] | 0.0021 | 49.7 | Reduced Eotaxin-3, P-selectin, and CD69, | 0.107 | 0.0723 | 0.257 | 0.0072 | 10.0 |  |  |  | 0.0012 |  |  |  |  |  |  |  | Anti-proliferation ([2]; cell type in which anti-proliferative effect was seen): Dermal fibroblasts
CCCCCCC(C)(C)c1cc(O)c2c(c1)OC(C)(C)[C@@H]1CC=C(C(=O)N3CCCCC3)C[C@@H]21 [Compound 93, ((6aR,10aR)-1-hydroxy-6,6-dimethyl-3-(2-methyloctan-2-yl)-6a,7,10,10a-tetrahydro-6H-benzo[c]chromen-9-yl)(piperidin-1-yl)methanone] |  |  | Reduced Eotaxin-3, P-selectin, CD69, and M-CSF; increased IL-6 |  | 0.243 | > 3 | 0.0319 | 7.6 |  |  |  | 0.0031 |  |  |  |  |  |  |  | 
CCCCCCC(C)(C)c1cc(O)c2c(c1)OC(C)(C)[C@@H]1CC=C(C(=O)NCCCO)C[C@@H]21 [Compound 13, (6aR,10aR)-1-Hydroxy-N-(3-hydroxypropyl)-6,6-dimethyl-3-(2-methyloctan-2-yl)-6a,7,10,10a-tetrahydro-6H-benzo[c]chromene-9-carboxamide] |  | 26.5 |  |  |  |  |  |  | 0.0025 | 0.0031 | 0.0662 | 0.807 | 49 | 0.42 | 0.787 | 0.0046 | 68 | 34 | 0.0124 | 
